ChEMBL document CHEMBL1909631, “Synthesis and anti-inflammatory activity of some new 4,5-dihydro-1,5-diaryl-1H-pyrazole-3-substituted-heteroazole derivatives” (Bioorg Med Chem Lett, 2011)

Assays:
Rattus norvegicus [1] = assay: Antiinflammatory activity in Wistar rat assessed as protection against carrageenan-induced paw edema at 100 mg/kg, po administered 1 hr before carrageenan challenge measured after 4 hrs relative to control; type: functional
Rattus norvegicus [2] = assay: Analgesic activity in Wistar rat assessed as inhibition of acetic acid-induced writhing at 100 mg/kg, po administered 1 hr before acetic acid challenge measured after 30 mins relative to control; type: functional
[3] = target: T1, Prostaglandin G/H synthase 2 (Homo sapiens) (UniProt P35354); assay: Inhibition of COX2 in human whole blood at 10 uM
T1 sequence (whole entry): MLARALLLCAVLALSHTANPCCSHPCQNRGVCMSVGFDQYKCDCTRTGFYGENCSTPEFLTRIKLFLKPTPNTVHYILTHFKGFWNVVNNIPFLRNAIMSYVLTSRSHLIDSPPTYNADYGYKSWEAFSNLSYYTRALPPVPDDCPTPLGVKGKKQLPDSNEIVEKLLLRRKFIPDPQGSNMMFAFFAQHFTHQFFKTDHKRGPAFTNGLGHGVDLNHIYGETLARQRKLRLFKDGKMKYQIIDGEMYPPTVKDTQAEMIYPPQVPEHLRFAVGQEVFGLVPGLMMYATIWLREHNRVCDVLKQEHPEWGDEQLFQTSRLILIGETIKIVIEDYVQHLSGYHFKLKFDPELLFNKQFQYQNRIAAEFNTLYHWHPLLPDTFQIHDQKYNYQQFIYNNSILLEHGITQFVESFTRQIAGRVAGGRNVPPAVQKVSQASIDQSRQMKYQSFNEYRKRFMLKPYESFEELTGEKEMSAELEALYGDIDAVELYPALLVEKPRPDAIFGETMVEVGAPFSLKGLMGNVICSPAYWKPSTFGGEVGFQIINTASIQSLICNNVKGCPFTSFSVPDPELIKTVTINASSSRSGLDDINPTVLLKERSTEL

Rattus norvegicus [4] = assay: Ulcerogenicity in fasted Wistar rat assessed as ulceration at 300 mg/kg, po administered every 2 hrs; type: toxicity, organism-based; parameters: dose 300 mg/kg, route oral; conditions: in vivo

| inhibition [3] | SMILES | Activity (Rattus norvegicus [1]) | inhibition in vivo at 100 mg/kg (Rattus norvegicus [2]) | Activity (Rattus norvegicus [4]) |
| --- | --- | --- | --- | --- |
| – | Sc1nc(C2=NN(c3ccccc3)C(c3ccc(Cl)cc3)C2)no1 (stereo not given) | 40.51% | – | – |
| – | Clc1ccc(C2CC(c3nn[nH]n3)=NN2c2ccccc2)cc1 (stereo not given) | 37.8% | – | – |
| – | N#CC1=NN(c2ccccc2)C(c2ccc(Cl)cc2)C1 (racemic) | 39.43% | – | – |
| – | N#CC1=NN(c2ccc(S(N)(=O)=O)cc2)C(c2ccc(Cl)cc2)C1 (racemic) | 49.67% | – | – |
| – | Oc1nnc(C2=NN(c3ccccc3)C(c3ccc(Cl)cc3)C2)o1 (racemic) | 24.26% | – | – |
| – | NS(=O)(=O)c1ccc(N2N=C(c3nnc(O)o3)CC2c2ccc(Cl)cc2)cc1 (racemic) | 35.38% | – | – |
| – | Sc1nnc(C2=NN(c3ccccc3)C(c3ccc(Cl)cc3)C2)o1 (racemic) | 32.74% | – | – |
| – | NS(=O)(=O)c1ccc(N2N=C(c3nnc(S)o3)CC2c2ccc(Cl)cc2)cc1 (racemic) | 36.76% | – | – |
| – | Nc1nnc(C2=NN(c3ccccc3)C(c3ccc(Cl)cc3)C2)o1 (racemic) | 4.5% | – | – |
| – | Nc1nnc(C2=NN(c3ccc(S(N)(=O)=O)cc3)C(c3ccc(Cl)cc3)C2)o1 (racemic) | 18.38% | – | – |
| – | CSc1nnc(C2=NN(c3ccccc3)C(c3ccc(Cl)cc3)C2)s1 (racemic) | 11.84% | – | – |
| – | CSc1nnc(C2=NN(c3ccc(S(N)(=O)=O)cc3)C(c3ccc(Cl)cc3)C2)s1 (racemic) | 26.12% | – | – |
| – | Oc1nc(C2=NN(c3ccccc3)C(c3ccc(Cl)cc3)C2)no1 (racemic) | 32.68% | – | – |
| – | NS(=O)(=O)c1ccc(N2N=C(c3noc(O)n3)CC2c2ccc(Cl)cc2)cc1 (racemic) | 46.18% | – | – |
| – | NS(=O)(=O)c1ccc(N2N=C(c3noc(S)n3)CC2c2ccc(Cl)cc2)cc1 (racemic) | 48.82% | – | – |
| – | Cc1nnc(C2=NN(c3ccccc3)C(c3ccc(Cl)cc3)C2)o1 (racemic) | 16.45% | – | – |

| inhibition [3] | SMILES | Activity (Rattus norvegicus [1]) | inhibition in vivo at 100 mg/kg (Rattus norvegicus [2]) | Activity (Rattus norvegicus [4]) |
| --- | --- | --- | --- | --- |
| – | FC(F)(F)c1nnc(C2=NN(c3ccccc3)C(c3ccc(Cl)cc3)C2)o1 (racemic) | -46.9% | – | – |
| – | CCOC(=O)c1nnc(C2=NN(c3ccccc3)C(c3ccc(Cl)cc3)C2)o1 (racemic) | 4.5% | – | – |
| – | CCOC(=O)Cc1nnc(C2=NN(c3ccccc3)C(c3ccc(Cl)cc3)C2)o1 (racemic) | -17.6% | – | – |
| – | O=C(O)c1nnc(C2=NN(c3ccccc3)C(c3ccc(Cl)cc3)C2)o1 (racemic) | -19.3% | – | – |
| – | O=C(O)Cc1nnc(C2=NN(c3ccccc3)C(c3ccc(Cl)cc3)C2)o1 (racemic) | 7.46% | – | – |
| 4% | Cc1nc(C2=NN(c3ccccc3)C(c3ccc(Cl)cc3)C2)no1 (racemic) | 49.24% | 23.7% | Non-toxic |
| 6% | FC(F)(F)c1nc(C2=NN(c3ccccc3)C(c3ccc(Cl)cc3)C2)no1 (racemic) | 49.45% | 15.8% | Non-toxic |
| – | CCOC(=O)c1nc(C2=NN(c3ccccc3)C(c3ccc(Cl)cc3)C2)no1 (racemic) | 20.35% | – | – |
| – | CCOC(=O)Cc1nc(C2=NN(c3ccccc3)C(c3ccc(Cl)cc3)C2)no1 (racemic) | 30.94% | – | – |
| – | O=C(O)c1nc(C2=NN(c3ccccc3)C(c3ccc(Cl)cc3)C2)no1 (racemic) | 14.4% | – | – |
| – | O=C(O)Cc1nc(C2=NN(c3ccccc3)C(c3ccc(Cl)cc3)C2)no1 (racemic) | 7.08% | – | – |
| 7% | NS(=O)(=O)c1ccc(N2N=C(c3nn[nH]n3)CC2c2ccc(Cl)cc2)cc1 (racemic) | 54.58% | 30.1% | Non-toxic |
| – | Cn1nnc(C2=NN(c3ccccc3)C(c3ccc(Cl)cc3)C2)n1 (racemic) | 34.31% | – | – |
| 11% | Cn1nnc(C2=NN(c3ccc(S(N)(=O)=O)cc3)C(c3ccc(Cl)cc3)C2)n1 (racemic) | 48.58% | 23.7% | Non-toxic |
| – | O=C([O-])Cc1ccccc1Nc1c(Cl)cccc1Cl.[Na+] [DICLOFENAC SODIUM] | 50.93% | 76.6% | Toxic |
